These are literature values, as cited in patent US20240108573A1, “NANOLIPID CARRIER BASED FORMULATION FOR BRAIN DELIVERY THROUGH INTRANASAL ROUTE AND ITS PREPARATION PROCESS” (AMRITA SCHOOL OF PHARMACY, AMRITA VISHWA VIDYAPEETHAM, priority 2022, published 2024).

With `O=C1NC(=O)C(c2ccccc2)(c2ccccc2)N1` [phenytoin sodium], the biological half-life is 15-22 hrs.
